Test results: patent publication US5889029A, “Use of cotinine in treating psychiatric disorders” (priority 1997, dated 1999)
Like-named read-outs stand apart in the source and are kept apart here.

Legend:
[1] = intramuscular injections; wide range of doses; squirrel monkeys; cited from earlier work
dopamine uptake site = target: T1, dopamine uptake site (Cavia porcellus, UniProt H0WCX4); assay: Dopamine Reuptake Binding Assay; conditions: Guinea pig striatal membranes, [3H]WIN,35,428 1.0 nM
T1 construct: Guinea pig striatal membranes; from tissue; host or cells: guinea pig striatal membranes
T1 sequence (H0WCX4 1-619): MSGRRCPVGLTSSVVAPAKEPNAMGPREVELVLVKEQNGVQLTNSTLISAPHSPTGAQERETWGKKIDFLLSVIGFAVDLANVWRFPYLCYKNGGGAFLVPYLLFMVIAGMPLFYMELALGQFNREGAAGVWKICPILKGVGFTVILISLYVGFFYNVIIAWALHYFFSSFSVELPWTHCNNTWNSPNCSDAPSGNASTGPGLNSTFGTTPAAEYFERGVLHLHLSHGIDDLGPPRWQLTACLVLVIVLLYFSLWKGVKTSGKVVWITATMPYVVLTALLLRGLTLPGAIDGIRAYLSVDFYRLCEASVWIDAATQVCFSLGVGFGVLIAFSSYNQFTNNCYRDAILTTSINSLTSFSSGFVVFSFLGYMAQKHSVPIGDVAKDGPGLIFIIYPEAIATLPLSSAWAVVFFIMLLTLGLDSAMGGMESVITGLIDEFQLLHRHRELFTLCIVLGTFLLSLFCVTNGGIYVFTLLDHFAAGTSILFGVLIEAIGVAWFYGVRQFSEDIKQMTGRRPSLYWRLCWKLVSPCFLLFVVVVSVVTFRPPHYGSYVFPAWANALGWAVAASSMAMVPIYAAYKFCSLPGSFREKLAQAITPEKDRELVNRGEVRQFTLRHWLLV

Opiate (Delta) = target: T2, Opiate (Delta) (Rattus norvegicus, UniProt P33533); assay: Opiate (Delta) Binding Assay; conditions: read-out: Receptor Binding Activity Percent Inhibition Average (N = 2)
T2 construct: Rat forebrain membranes; from tissue; host or cells: rat forebrain membranes
T2 sequence (P33533 whole entry): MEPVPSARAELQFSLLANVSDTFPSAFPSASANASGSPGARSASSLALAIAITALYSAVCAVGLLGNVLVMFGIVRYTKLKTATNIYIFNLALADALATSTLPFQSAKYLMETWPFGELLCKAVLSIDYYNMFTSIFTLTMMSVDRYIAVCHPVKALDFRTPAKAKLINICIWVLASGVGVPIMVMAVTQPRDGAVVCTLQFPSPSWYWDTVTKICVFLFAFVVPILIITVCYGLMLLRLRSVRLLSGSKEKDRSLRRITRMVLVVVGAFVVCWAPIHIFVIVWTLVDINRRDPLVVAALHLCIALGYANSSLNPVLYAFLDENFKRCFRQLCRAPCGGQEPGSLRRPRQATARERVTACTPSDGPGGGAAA

[2] = intravenous; cats; cited from earlier work
[3] = cited from earlier work
[4] = target: T3, Human recombinant M2 clone (Homo sapiens, UniProt P08172); assay: Muscarinic--M2 Clone Binding Assay
T3 construct: expressed in transfected cells
T3 sequence (P08172 1-466): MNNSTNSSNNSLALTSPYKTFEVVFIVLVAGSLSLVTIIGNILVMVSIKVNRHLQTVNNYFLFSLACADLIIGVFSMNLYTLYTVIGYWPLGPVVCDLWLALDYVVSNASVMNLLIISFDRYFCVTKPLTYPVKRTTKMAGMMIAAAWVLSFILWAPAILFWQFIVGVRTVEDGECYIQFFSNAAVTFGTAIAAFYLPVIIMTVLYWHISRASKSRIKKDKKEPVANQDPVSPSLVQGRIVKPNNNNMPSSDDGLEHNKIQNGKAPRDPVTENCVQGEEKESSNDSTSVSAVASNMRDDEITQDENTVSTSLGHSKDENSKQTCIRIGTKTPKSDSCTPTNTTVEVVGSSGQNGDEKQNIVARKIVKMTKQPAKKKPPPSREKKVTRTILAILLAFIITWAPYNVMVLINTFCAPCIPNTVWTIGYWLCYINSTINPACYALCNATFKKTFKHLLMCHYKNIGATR

nicotinic binding site = target: T4, nicotinic binding site (Rattus norvegicus, UniProt P09483+P12390); assay: biochemical; conditions: Rat cortical membranes, [3H]N-methylcarbamylcholine iodide 2.5 nM, read-out: Receptor Binding Activity Percent Inhibition Average (N = 2)
T4 construct: Rat cortical membranes; from tissue; host or cells: rat cortical membranes
T4 sequence (P09483 31-630): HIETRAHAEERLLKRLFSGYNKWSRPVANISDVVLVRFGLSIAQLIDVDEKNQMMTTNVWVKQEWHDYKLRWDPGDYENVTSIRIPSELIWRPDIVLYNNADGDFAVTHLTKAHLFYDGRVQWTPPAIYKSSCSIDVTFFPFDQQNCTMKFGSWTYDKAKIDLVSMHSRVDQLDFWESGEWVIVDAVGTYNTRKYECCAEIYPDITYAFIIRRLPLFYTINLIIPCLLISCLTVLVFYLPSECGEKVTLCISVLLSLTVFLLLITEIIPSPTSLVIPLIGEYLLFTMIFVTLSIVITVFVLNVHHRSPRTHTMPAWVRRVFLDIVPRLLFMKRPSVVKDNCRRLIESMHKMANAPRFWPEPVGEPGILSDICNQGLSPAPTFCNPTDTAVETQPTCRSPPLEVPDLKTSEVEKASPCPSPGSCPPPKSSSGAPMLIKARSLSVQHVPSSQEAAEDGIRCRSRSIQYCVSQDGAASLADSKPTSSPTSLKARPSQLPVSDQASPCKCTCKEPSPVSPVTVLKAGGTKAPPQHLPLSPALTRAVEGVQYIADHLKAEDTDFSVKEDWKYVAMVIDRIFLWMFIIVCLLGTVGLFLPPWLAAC
T4 sequence (P12390 25-500): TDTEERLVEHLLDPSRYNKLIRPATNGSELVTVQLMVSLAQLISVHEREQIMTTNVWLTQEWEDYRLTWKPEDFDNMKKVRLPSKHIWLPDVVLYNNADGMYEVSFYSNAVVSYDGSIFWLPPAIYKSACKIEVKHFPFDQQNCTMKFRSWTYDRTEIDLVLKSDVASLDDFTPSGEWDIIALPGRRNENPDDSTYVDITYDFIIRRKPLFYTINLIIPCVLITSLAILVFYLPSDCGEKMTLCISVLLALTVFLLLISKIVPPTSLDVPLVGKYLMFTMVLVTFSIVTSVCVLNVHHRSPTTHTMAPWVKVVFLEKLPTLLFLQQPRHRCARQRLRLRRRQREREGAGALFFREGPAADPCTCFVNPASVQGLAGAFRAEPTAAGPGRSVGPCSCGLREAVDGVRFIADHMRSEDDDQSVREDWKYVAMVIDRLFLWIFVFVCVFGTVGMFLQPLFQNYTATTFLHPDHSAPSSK

[5] = target: T5, recombinant Rat 5HT7 Clone (Rattus norvegicus, UniProt P32305); assay: Serotonin--5HT7 Clone Binding Assay; conditions: [3H]LSD 2.0 nM, read-out: Receptor Binding Activity Percent Inhibition Average (N = 2)
T5 construct: expressed in transfected cells
T5 sequence (P32305 whole entry): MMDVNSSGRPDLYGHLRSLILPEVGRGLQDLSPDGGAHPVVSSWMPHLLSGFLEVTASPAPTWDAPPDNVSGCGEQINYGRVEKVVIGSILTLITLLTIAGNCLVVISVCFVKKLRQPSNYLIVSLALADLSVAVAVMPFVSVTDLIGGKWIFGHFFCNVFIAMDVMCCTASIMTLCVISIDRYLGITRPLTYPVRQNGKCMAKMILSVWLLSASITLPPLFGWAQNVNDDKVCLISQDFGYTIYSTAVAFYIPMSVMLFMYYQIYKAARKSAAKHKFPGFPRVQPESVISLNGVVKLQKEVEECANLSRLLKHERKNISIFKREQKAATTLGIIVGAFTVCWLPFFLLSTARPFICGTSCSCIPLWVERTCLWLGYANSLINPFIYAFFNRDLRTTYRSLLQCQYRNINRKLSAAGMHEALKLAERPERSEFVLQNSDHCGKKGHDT

[6] = humans, cited from earlier work
Dopamine (D1 Central) = target: T6, Dopamine (D1 Central) (Rattus norvegicus, UniProt P18901); assay: Dopamine (D1 Central) Binding Assay; conditions: Rat striatal membranes, [3H]SCH 23390 0.5 nM
T6 construct: Rat striatal membranes; from tissue; host or cells: rat striatal membranes
T6 sequence (P18901 whole entry): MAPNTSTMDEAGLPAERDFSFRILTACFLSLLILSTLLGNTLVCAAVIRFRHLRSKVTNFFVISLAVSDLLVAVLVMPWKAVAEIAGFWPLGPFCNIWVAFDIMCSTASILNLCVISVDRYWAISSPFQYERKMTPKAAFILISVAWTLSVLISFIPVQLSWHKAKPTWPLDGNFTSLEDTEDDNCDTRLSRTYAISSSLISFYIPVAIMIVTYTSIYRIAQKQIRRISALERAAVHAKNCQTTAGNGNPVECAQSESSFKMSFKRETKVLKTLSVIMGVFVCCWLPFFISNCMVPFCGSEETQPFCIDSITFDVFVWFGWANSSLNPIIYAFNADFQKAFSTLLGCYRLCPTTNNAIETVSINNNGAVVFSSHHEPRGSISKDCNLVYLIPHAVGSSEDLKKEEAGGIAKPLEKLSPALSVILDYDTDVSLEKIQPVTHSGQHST

[7] = target: Glycine (Strychnine Insensitive) (Rattus norvegicus, UniProt P35439); assay: biochemical; format: binding; conditions: read-out: Receptor Binding Activity Percent Inhibition Average (N = 2)
[8] = target: T7, Human recombinant M1 clone (Homo sapiens, UniProt P11229); assay: biochemical; format: binding
T7 construct: expressed in transfected cells
T7 sequence (P11229 1-460): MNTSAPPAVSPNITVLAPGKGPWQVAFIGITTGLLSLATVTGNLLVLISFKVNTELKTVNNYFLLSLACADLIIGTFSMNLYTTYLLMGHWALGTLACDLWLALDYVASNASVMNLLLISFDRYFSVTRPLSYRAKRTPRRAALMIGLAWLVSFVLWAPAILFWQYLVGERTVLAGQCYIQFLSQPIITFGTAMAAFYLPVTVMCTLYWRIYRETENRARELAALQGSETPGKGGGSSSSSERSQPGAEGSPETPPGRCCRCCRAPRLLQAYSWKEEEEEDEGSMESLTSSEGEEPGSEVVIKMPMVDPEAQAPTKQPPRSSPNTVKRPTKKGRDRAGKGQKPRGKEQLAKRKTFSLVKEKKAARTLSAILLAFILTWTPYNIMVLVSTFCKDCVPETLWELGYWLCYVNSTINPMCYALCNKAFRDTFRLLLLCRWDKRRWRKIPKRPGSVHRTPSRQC

Histamine (H2) = target: T8, Histamine (H2) (Cavia porcellus, UniProt P47747); assay: Histamine (H2) Binding Assay; design: species or system Guinea pig; conditions: Guinea pig striatal membranes, [3H]Tiotidine 4.0 nM, read-out: Receptor Binding Activity Percent Inhibition Average (N = 2)
T8 construct: Guinea pig striatal membranes; from tissue; host or cells: guinea pig striatal membranes
T8 sequence (P47747 whole entry): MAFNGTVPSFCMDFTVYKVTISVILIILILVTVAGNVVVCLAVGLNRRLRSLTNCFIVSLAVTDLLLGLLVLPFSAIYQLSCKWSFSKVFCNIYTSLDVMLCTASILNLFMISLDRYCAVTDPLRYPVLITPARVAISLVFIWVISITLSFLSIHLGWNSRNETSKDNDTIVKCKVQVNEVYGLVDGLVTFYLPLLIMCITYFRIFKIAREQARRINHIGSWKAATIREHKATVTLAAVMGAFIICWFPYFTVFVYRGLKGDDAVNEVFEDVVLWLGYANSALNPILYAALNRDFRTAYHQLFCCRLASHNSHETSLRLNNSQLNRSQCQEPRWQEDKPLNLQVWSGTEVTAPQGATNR

[9] = target: T9, Benzodiazepine (Peripheral) (Rattus norvegicus, UniProt P16257); assay: Benzodiazepine (Peripheral) Binding Assay; conditions: read-out: Receptor Binding Activity Percent Inhibition Average (N = 2)
T9 construct: Rat kidney membranes; from tissue; host or cells: rat kidney membranes
T9 sequence (P16257 whole entry): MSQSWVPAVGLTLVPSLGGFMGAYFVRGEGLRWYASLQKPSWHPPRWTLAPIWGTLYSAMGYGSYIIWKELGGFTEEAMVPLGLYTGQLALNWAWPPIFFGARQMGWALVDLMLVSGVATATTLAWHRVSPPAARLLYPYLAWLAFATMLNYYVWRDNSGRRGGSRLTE

[10] = Half-life, bioavailability and blood levels in humans; design: species or system human; conditions: in vivo
GABA uptake site = target: T10, GABA uptake site (Rattus norvegicus, UniProt P23978); assay: biochemical; conditions: Rat cortical membranes, [3H]GABA 3.6 nM, read-out: Receptor Binding Activity Percent Inhibition Average (N = 2)
T10 construct: Rat cortical membranes; from tissue; host or cells: rat cortical membranes

[11] = cited from earlier work; remark: listed apart in the source
[12] = read-out: Receptor Binding Activity Percent Inhibition Average (N = 2)

Which “rates of responding on fixed interval schedules of reinforcement” value [1] does the source give for `CN1C(=O)CCC1c1cccnc1` (single isomer, unassigned) [Cotinine, 1-methyl-5-(3-pyridinyl)-2-pyrrolidionone] here?
The value was “increased rates of responding”.

What about the “Receptor Binding Activity Percent Inhibition Average (N = 2)” value (dopamine uptake site; 10^-4 M) of the same compound?
The value was 7.5%.

And the “Receptor Binding Activity Percent Inhibition Average (N = 2)” value (dopamine uptake site; 10^-6 M)?
Its value is 14.2%.

What about the inhibition at 1 µM (Opiate (Delta)) of the same compound?
Its inhibition at 1 µM is 8.3%.

What about the inhibition at 100 µM (Opiate (Delta)) of the same compound?
The inhibition at 100 µM was 10%.

And the “EEG activity and behavioral arousal” value [2]?
The value was “increases only slightly”.

And the blood pressure [2]?
Its blood pressure is “only a slight decrease”.

And the terminal elimination half-life ([3]; human, in vivo)?
The terminal elimination half-life was “about 16 hours”.

And the half-life ([3]; in the human, in vivo)?
Its half-life is 16 to 17 h.

And the oral bioavailability ([3]; in vivo, po)?
Its oral bioavailability is “complete”.

And the terminal elimination half-life ([3]; in vivo)?
The terminal elimination half-life was “sixteen”.

What about the “blood concentration in smokers” value ([3]; nicotine: one-pack-a-day smoker, cotinine: one-half-pack-a-day smoker) of the same compound?
The value was “about 300 ng/ml”.

And the concentration ([3]; read-out: blood concentration in smokers, nicotine: one-pack-a-day smoker, cotinine: one-half-pack-a-day smoker)?
Its concentration is ~2 µM.

And the “effectiveness in binding relative to an equal concentration of nicotine, binding expressed as percent inhibition” value ([4]; muscarinic-2 receptor, human tissue)?
Its value is “about five”.

What about the inhibition at 1 µM [4, 12] of the same compound?
Its inhibition at 1 µM is 22.3%.

And the inhibition at 100 µM [4, 12]?
The inhibition at 100 µM was 21.6%.

What about the inhibition at 100 µM (nicotinic binding site; 10^-4 M) of the same compound?
Its inhibition at 100 µM is 12%.

And the inhibition at 1 µM (nicotinic binding site; 10^-6 M)?
Its inhibition at 1 µM is 78.5%.

And the inhibition at 100 µM ([5]; 10^-4 M)?
The inhibition at 100 µM was 6.4%.

What about the inhibition at 1 µM ([5]; 10^-6 M) of the same compound?
The inhibition at 1 µM was -0.3%.

And the cardiovascular changes ([6]; intravenous infusion over 60 minutes)?
The cardiovascular changes was “no cardiovascular changes”.

And the “subjective ratings of desire to smoke, irritability, low energy and anxiety/tension” value ([6]; intravenous infusion over 60 minutes, comparable to placebo-induced changes)?
The value was “significant decreases”.

And the subjective ratings ([6]; rapid infusion over 5 minutes)?
Its subjective ratings is “no significant changes”.

What about the “Receptor Binding Activity Percent Inhibition Average (N = 2)” value (Dopamine (D1 Central); 10^-4 M) of the same compound?
The value was 3.3%.

What about the “Receptor Binding Activity Percent Inhibition Average (N = 2)” value (Dopamine (D1 Central); 10^-6 M) of the same compound?
The value was 2.9%.

And the inhibition at 1 µM [7]?
The inhibition at 1 µM was 10.9%.

And the inhibition at 100 µM [7]?
The inhibition at 100 µM was -0.6%.

And the “effectiveness in binding relative to an equal concentration of nicotine, binding expressed as percent inhibition” value [8]?
The value was “about 19 times”.

What about the inhibition at 1 µM [8, 12] of the same compound?
The inhibition at 1 µM was 15.5%.

What about the inhibition at 100 µM [8, 12] of the same compound?
Its inhibition at 100 µM is 19.5%.

And the inhibition at 100 µM (Histamine (H2); 10^-4 M)?
The inhibition at 100 µM was -1.4%.

And the inhibition at 1 µM (Histamine (H2); 10^-6 M)?
The inhibition at 1 µM was 9.2%.

What about the inhibition at 1 µM [9] of the same compound?
The inhibition at 1 µM was 8.5%.

What about the inhibition at 100 µM [9] of the same compound?
The inhibition at 100 µM was 1.4%.

And the “duration of effectiveness relative to nicotine, due to greater half-life” value [10]?
Its value is “about eight”.

What about the inhibition at 100 µM (GABA uptake site; 10^-4 M) of the same compound?
The inhibition at 100 µM was 7.4%.

And the inhibition at 1 µM (GABA uptake site; 10^-6 M)?
The inhibition at 1 µM was 13.9%.

What about the “amount present in the blood without producing deleterious effects” value ([11]; humans) of the same compound?
The value was ~18,000 ng/ml.

What about the “effect on the cardiovascular system” value ([11]; in vivo) of the same compound?
Its value is “minimal effect”.

What about the “harm at very high doses” value ([11]; many species, including man) of the same compound?
Its value is “has not been reported to be harmful”.
